Laboratory results published in patent publication US20240269299A1, “POLYETHYLENE GLYCOL-DRUG CONJUGATE AND USE THEREOF” (CHONGQING UPGRA BIOTECHNOLOGY CO. LTD., priority 2021, published 2024).

System: choroidal neovascularization (CNV)
Experiment: Laser modeling of choroidal neovascularization (CNV) in mice
Format: in vivo, C57BL/6J suckling mice
Conditions: 1 μL injected into vitreous space one week after photocoagulation
Experimental: Experimental animals: C57BL/6J suckling mice, where the mice were all female and subjected to laser modeling three days after birth.
A mixed solution of 20% V/V PEG300, 20% V/V anhydrous ethanol and 60% V/V normal saline was used as a solvent for compound 39-205 to prepare a 20 mg/mL solution for use in mice No. 6 and No. 7, respectively. A saline solution of aflibercept was used as a positive control for mouse No. 5.
After the mice were anesthetized, a semiconductor laser was used to perform retinal photocoagulation around optic discs under a retinoscope. An irradiation site was between blood vessels that were one optic disc diameter away from the optic disc. The generation of bubbles after photocoagulation was an indicator of breaking Bruch's membrane. The laser modeling conditions for mice No. 6 and No. 7 were 350 mw and 200 ms, and the laser modeling conditions for mouse No. 5 were 300 mw, 260 ms, and the photocoagulation time was 1 s. One week after photocoagulation, medication treatments started for the mice. The administration method was: 1 μL of each of the 20 mg/mL solution of compound 39-205 prepared above and a normal saline solution of aflibercept was injected into vitreous space.

aflibercept
area of the laser spot after administration (compound 39-205 as 20 mg/mL solution, aflibercept in normal saline, FIG. 1 to FIG. 4): did not significantly reduce
fundus angiography after administration (mouse No. 5, FIG. 1): not significantly improved
